Patent publication US20190211020A1 (Agency for Science, Technology and Research, priority 2012, published 2019)
Like-named read-outs stand apart in the source and are kept apart here. One block for each molecule: values may come before it.

How the values were obtained:
[1] = Pharmacokinetics assays (plasma and brain); type: in vivo; parameters: AUC(0-t) / AUC(0-inf): concentration or dose not given beside the values; settings: for Plasma/Brain Ratio: in vivo; for AUC(0-t): read-out: Plasma AUC last; for Cmax: species, dose and route not given
[2] = tested on: eIF4E Ser209 phosphorylation in Hela cells; test: MNK cell-based assay (AlphaScreen SureFire, eIF4E Ser209 phosphorylation); settings: Homo sapiens, read-out: IC50 Hela
Outline: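 Hela cells (30,000/well) exposed to test compound in serum-free medium for 2 h at 37 °C, then lysed. Phospho-Ser209 eIF4E quantified by AlphaScreen SureFire; IC50 obtained by non-linear regression of signal versus log compound concentration.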

[3] = tested on: eIF4E phosphorylation in K562 cells; test: Western blot of eIF4E phosphorylation in K562 cells; type: cell-based; settings: various concentrations, 24 h
Procedure: K562 cell line was obtained from the ATCC, and grown in RPMI supplemented with 10% FCS, L-glutamine, and penicillin/streptomycin.
Exponentially growing cells were plated at 2×10^5 cells/ml, and whole cell lysate processed for western blot analysis using antibodies recognizing eIF4E, phospho-eIF4E (Cell signaling Technology),

[4] = tested on: phospho-eIF4E S209 in BC-CML primary cells; test: Immunofluorescence of phospho-eIF4E in BC-CML primary cells; type: cell-based, human; settings: 48 h
Excerpt: Cord Blood (CB) samples were purchased from the Singapore Cord Blood bank. CML samples were the Singapore General Hospital after signed informed consent under local IRB-approved procedures. MNCs were obtained using Ficoll separation, and CD34^+ cells selected by immunomagnetic beads (Miltenyi Biotech, Germany).
Cells (1×10^5) were cytospun onto glass slides, fixed with 4% paraformaldehye, and stained with mouse monoclonal antibodies against activated β-catenin (clone 8E7, Millipore, UK), or rabbit monoclonal antibodies against phospho-eIF4E S209 (EP2151Y, Abcam, UK). Slides were then stained with either PE-conjugated anti-mouse or FITC-conjugated anti-rabbit antibodies. Images were obtained with the use of a fluorescence microscope (Olympus IX71S1F3) at 40× magnification.

MNK1 = target: T1, MNK1 (Homo sapiens, UniProt Q9BUB5); test: In vitro MNK kinase assay (Caliper LabChip mobility shift), MNK1; type: biochemical; settings: enzymatic; 1.2 mM ATP
T1 construct: recombinant kinase domains expressed in E. coli; fused on or other part: N-terminal GST tag, removed with PreScission protease before the test
T1 sequence (Q9BUB5 1-424 isoform Q9BUB5-2): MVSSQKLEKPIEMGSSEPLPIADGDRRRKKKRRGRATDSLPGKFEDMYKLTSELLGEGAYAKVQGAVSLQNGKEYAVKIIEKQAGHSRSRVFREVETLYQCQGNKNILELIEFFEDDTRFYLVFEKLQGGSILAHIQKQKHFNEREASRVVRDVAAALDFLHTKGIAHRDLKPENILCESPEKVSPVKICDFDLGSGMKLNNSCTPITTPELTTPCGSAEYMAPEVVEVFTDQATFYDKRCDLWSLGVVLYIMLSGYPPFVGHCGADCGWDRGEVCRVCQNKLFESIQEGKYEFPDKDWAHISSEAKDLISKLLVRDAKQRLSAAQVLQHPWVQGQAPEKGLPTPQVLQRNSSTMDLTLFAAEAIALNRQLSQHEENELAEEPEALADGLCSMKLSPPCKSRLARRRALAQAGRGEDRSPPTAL
Procedure: (§1) MNK1 and MNK2 inhibitor activity was determined using recombinant kinase domains expressed in E. coli. MNK1 and MNK2 were expressed as GST fusion proteins and the GST tag was removed using PreScission protease. After concentration to 10-15 mg/ml the proteins were flash frozen in liquid nitrogen and stored at −80° C.
(§2) This reaction mixture was then used immediately for the activation of the MNKs. The activation of the MNK1 was performed by incubating 5.0 μM of MNK1 with 0.3 μM of activated ERK2 and 500 μM ATP at 30° C. for 6 hours. The activation of MNK2 was performed by incubating 50 μM of MNK2 with 3.0 μM of activated ERK2 and 500 μM ATP at 30° C. for 2 hours. The activated MNKs were stored at −20° C. until required for assay.
(§3) Kinase assays were performed on the Caliper Life Sciences (Mountain View, Calif.) Microfluidics LabChip® Platform. Enzyme activity is analyzed by ‘sipping’ reactions from a microtitre plate into LabChip. The data signature is generated by the shift in mobility of non-phosphorylated peptide substrates and phosphorylated products by electrophoresis in the chip and detected by LED induced fluorescence. […] The data is analyzed by calculating the relative heights of the substrate and product peaks and the product/(product+substrate) peak ratio is reported.
(§4) The following buffers were used to assay kinase activity:
(§5) Reconstitution buffer: 10 mM HEPES/NaOH pH7.5, 0.003% Brij® L23, 0.004% TWEEN® 20.
(§6) Separation buffer: 100 mM HEPES/NaOH pH7.3, 0.02% Brij® L23, 5% DMSO, 0.1% CR3, 1 mM EDTA pH8.0.
(§7) The reaction was stopped by the addition of […] termination buffer.
(§8) Inhibition constants (IC50) were determined by plotting kinase activity versus log compound concentration and fitting with a non-linear regression algorithm using GraphPad Prism (GraphPad Software Inc.).

MNK2 = target: T2, MNK2 (Homo sapiens, UniProt Q9HBH9); test: In vitro MNK kinase assay (Caliper LabChip mobility shift), MNK2; type: biochemical; settings: enzymatic; 250 μM ATP
T2 construct: GST (cleaved yes); made in house; host or cells: E. coli
T2 sequence (Q9HBH9 84-388 limits assumed): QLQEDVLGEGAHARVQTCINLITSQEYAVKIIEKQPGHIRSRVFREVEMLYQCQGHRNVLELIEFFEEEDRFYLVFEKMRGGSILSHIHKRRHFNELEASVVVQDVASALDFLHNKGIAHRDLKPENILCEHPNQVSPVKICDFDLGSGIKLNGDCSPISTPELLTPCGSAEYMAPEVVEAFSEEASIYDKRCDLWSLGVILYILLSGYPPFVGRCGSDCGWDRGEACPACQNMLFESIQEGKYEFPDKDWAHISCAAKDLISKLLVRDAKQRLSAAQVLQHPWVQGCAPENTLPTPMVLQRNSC
Procedure: as §1, §2, §3, §4, §5, §6, §7, §8

[5] = tested on: K562 cells (myelogenous leukemia) over-expressing eIF4E; test: Cell cytotoxicity assay (CellTiter-Glo), K562; type: cell-based; settings: for IC50: Homo sapiens, cell viability; for change of IC50 when treatment duration was extended from 48 hours to 6 days, K562: K562 cells over-expressing eIF4E
Procedure: (§9) Cancer cell lines, MV-4-11 (leukemia), P116.c139 (acute T cell leukemia) and D1.1 (acute T cell leukemia), were purchased from ATCC and cultured according to supplier's recommendations. K562 cells (myelogenous leukemia) over-expressing eIF4E, were also used for the cytotoxicity assay. For cells treated for 48 hours, 5000 cells were seeded in 70 μl of growth medium in black, flat-bottom 96-well plate. For cells treated for six days, 1000 cells were seeded in 70 μl of growth medium in black, flat-bottom 96-well plate. […] 50 μl of the diluted compounds was added to the cells and incubated at 37° C. in 5% CO2. After 48 hours or six days treatment, cell viability was determined by CellTiter-Glo Luminescent Cell Viability Assay (Promega, Madison, Wis.). 120 μl of the reagent was added to the cells and luminescence was measured using Tecan Safire Reader. Data was analysed with Graphpad Prism software and the figures represented indicate the half maximal inhibitory concentration (IC50). Error bars denote standard deviation (SD).

MV-4-11 (leukemia) = test: Cell cytotoxicity assay (CellTiter-Glo), MV-4-11; type: cell-based; settings: Homo sapiens, cell viability
Procedure: as §9

[6] = tested on: D1.1 (acute T cell leukemia); test: Cell cytotoxicity assay (CellTiter-Glo), D1.1; type: cell-based; settings: for IC50: T-cell, cell viability
Procedure: as §9

[7] = tested on: P116.c139 (acute T cell leukemia); test: Cell cytotoxicity assay (CellTiter-Glo), P116.c139; type: cell-based; settings: for IC50: T-cell, cell viability
Procedure: as §9

[8] = tested on: eIF4E phosphorylation in BC GMPs; settings: background; cited from earlier work
[9] = tested on: active nuclear beta-catenin in BC GMPs; settings: background; cited from earlier work
[10] = tested on: CD34+BC cells (including those carrying T315I mutation); settings: background; cited from earlier work
[11] = brain, read-out: Brain T1/2 (converted)
[12] = plasma, read-out: Plasma T1/2 (converted)
[13] = eIF4E Ser209 phosphorylation, Hela cells, 2 hours
[14] = K562, 144 h, 6 days, read-out: IC50 after 6 days of treatment, K562
[15] = K562, 48 hours, read-out: IC50 after 48 hours of treatment, K562
[16] = MV4-11, 144 h, 6 days, read-out: IC50 after 6 days of treatment, MV-4-11
[17] = MV4-11, 48 hours, read-out: IC50 after 48 hours of treatment, MV-4-11
[18] = 144 h, 6 days, read-out: IC50 after 6 days of treatment, D1.1
[19] = 48 hours, read-out: IC50 after 48 hours of treatment, D1.1
[20] = 144 h, 6 days, read-out: IC50 after 6 days of treatment, P116.c139
[21] = 48 hours, read-out: IC50 after 48 hours of treatment, P116.c139

Compound: N#Cc1ccc(-c2cnn3ccc(-c4ccc(C(=O)N5CCOCC5)cc4)nc23)cc1 [Entry 8]
Brain AUC inf ([1]; brain): 29267 ng·h/g | Brain AUC last ([1]; brain): 29166 ng·h/g | Brain Cmax ([1]; brain): 3967 ng/g | half-life [1, 11]: 158 min | Tmax ([1]; brain, read-out: Brain Tmax): 120 min | Plasma/Brain Ratio [1]: 0.53 | AUC(0-inf) ([1]; plasma): 55100 ng·h/mL | AUC(0-t) ([1]; plasma): 54800 ng·h/mL | half-life [1, 12]: 167 min | Tmax ([1]; plasma, read-out: Plasma Tmax): 30 min | Cmax ([1]; plasma): 5970 ng/mL

Compound: CC(=O)Nc1cc(-c2ccc3ncc(-c4ccc(C#N)cc4)n3c2)ccc1C(=O)N1CCOCC1 [Entry 9]
Brain AUC inf ([1]; brain): 161 ng·h/g | Brain AUC last ([1]; brain): 156 ng·h/g | Brain Cmax ([1]; brain): 106 ng/g | half-life [1, 11]: 45.6 min | Tmax ([1]; brain, read-out: Brain Tmax): 30 min | Plasma/Brain Ratio [1]: 0.03 | AUC(0-inf) ([1]; plasma): 5720 ng·h/mL | AUC(0-t) ([1]; plasma): 5720 ng·h/mL | half-life [1, 12]: 88.2 min | Tmax ([1]; plasma, read-out: Plasma Tmax): 15 min | Cmax ([1]; plasma): 3860 ng/mL

Compound: CN1CCN(C(=O)c2ccc(-c3cn4c(-c5ccc(C#N)cc5)cnc4cn3)cc2)CC1 [Example 6, 4-(6-(4-(4-methylpiperazine-1-carbonyl)phenyl)imidazo[1,2-a]pyrazin-3-yl)benzonitrile]
IC50 ([2]; HeLa, 2 h): < 1 µM | eIF4E phosphorylation in K562 (BC-CML cell line), Western blot [3]: prevent eIF4E phosphorylation | eIF4E phosphorylation in BC-CML primary cells, immunofluorescence [4]: prevent eIF4E phosphorylation

Compound: CC(=O)NC1CCN(C(=O)c2ccc(-c3cn4c(-c5ccc(Cl)cc5)cnc4cn3)cc2)CC1 [Example 49]
IC50 (MNK1): < 1 µM | IC50 (MNK2): < 1 µM | IC50 [2, 13]: < 1 µM

Compound: CC(=O)Nc1cc(-c2ccc3ncc(-c4ccc(C#N)cc4)n3n2)ccc1C(=O)N1CCOCC1 [Example 80, N-(5-(3-(4-cyanophenyl)imidazo[1,2-b]pyridazin-6-yl)-2-(morpholine-4-carbonyl)phenyl)acetamide]
IC50 (MNK1): < 0.1 µM | IC50 (MNK2): < 0.1 µM | IC50 [2, 13]: < 1 µM

Compound: CN1CCN(C2CCN(C(=O)c3ccc(-c4ccc5ncc(-c6ccc(C#N)cc6)n5c4)cc3)CC2)CC1 [Example 133, 4-(6-(4-(4-(4-methylpiperazin-1-yl)piperidine-1-carbonyl)phenyl)imidazo[1,2-a]pyridin-3-yl)benzonitrile]
IC50 [2, 13]: < 1 µM | IC50 [5, 14]: 16 µM | IC50 [5, 15]: 23 µM | change of IC50 when treatment duration was extended from 48 hours to 6 days, K562 [5]: not influenced by the treatment duration | IC50 (MV-4-11 (leukemia); [16]): 1.5 µM | IC50 (MV-4-11 (leukemia); [17]): 2.8 µM | change of IC50 when treatment duration was extended from 48 hours to 6 days, D1.1 [6]: not influenced by the treatment duration | IC50 [6, 18]: 11.2 µM | IC50 [6, 19]: 15.8 µM | change of IC50 when treatment duration was extended from 48 hours to 6 days, P116.c139 [7]: decrease the IC50 by more than half-fold | IC50 [7, 20]: 4 µM | IC50 [7, 21]: 10.9 µM

Compound: CN1CCN(C(=O)c2ccc(-c3ccc4ncc(-c5ccc(O)cc5)n4c3)cc2)CC1 [Example 175, (4-(3-(4-hydroxyphenyl)imidazo[1,2-a]pyridin-6-yl)phenyl)(4-methylpiperazin-1-yl)methanone]
IC50 [5, 14]: 21.2 µM | IC50 [5, 15]: 18.2 µM | change of IC50 when treatment duration was extended from 48 hours to 6 days, K562 [5]: not influenced by the treatment duration | IC50 (MV-4-11 (leukemia); [16]): 0.3 µM | IC50 (MV-4-11 (leukemia); [17]): 0.9 µM | change of IC50 when treatment duration was extended from 48 hours to 6 days, D1.1 [6]: not influenced by the treatment duration | IC50 [6, 18]: 10.1 µM | IC50 [6, 19]: 12.3 µM | change of IC50 when treatment duration was extended from 48 hours to 6 days, P116.c139 [7]: decrease the IC50 by more than half-fold | IC50 [7, 20]: 5.7 µM | IC50 [7, 21]: 12.5 µM

Compound: Cc1ccc(NC(=O)c2ccc(CN3CCN(C)CC3)cc2)cc1Nc1nccc(-c2cccnc2)n1 [imatinib]
eIF4E phosphorylation in BC GMPs [8]: not | accumulation of active nuclear beta-catenin in BC GMPs [9]: not | ability of CD34+ BC cells to serially replate for more than 8 weeks in methylcellulose [10]: only partially impaired

Results, then the molecule that gave them:

Brain AUC inf ([1]; brain): 775 ng·h/g | Brain AUC last ([1]; brain): 754 ng·h/g | Brain Cmax ([1]; brain): 469 ng/g | half-life [1, 11]: 41.4 min | Tmax ([1]; brain, read-out: Brain Tmax): 60 min | Plasma/Brain Ratio [1]: 0.06 | AUC(0-inf) ([1]; plasma): 12800 ng·h/mL | AUC(0-t) ([1]; plasma): 12700 ng·h/mL | half-life [1, 12]: 66.6 min | Tmax ([1]; plasma, read-out: Plasma Tmax): 30 min | Cmax ([1]; plasma): 6400 ng/mL
Compound: N#Cc1ccc(-c2cnc3cnc(-c4ccc(C(=O)N5CCOCC5)cc4)cn23)cc1 [Entry 10]

IC50 (MNK1): < 0.1 µM | IC50 (MNK2): < 0.1 µM | IC50 [2, 13]: < 1 µM
Compound: Cc1cc(-c2cn3c(-c4ccc(C#N)cc4)cnc3cn2)ccc1C(=O)N1CCC(N)CC1 [Example 27, 4-(6-(4-(4-aminopiperidine-1-carbonyl)-3-methylphenyl)imidazo [1,2-a]pyrazin-3-yl)benzonitrile]

IC50 (MNK1): < 0.1 µM | IC50 (MNK2): < 0.1 µM | IC50 [2, 13]: < 1 µM
Compound: N#Cc1ccc(-c2cnc3ccc(-c4ccc(C(=O)N5CCN(c6ccncc6)CC5)cc4)cn23)cc1 [Example 125, 4-(6-(4-(4-(pyridin-4-yl)piperazine-1-carbonyl)phenyl)imidazo[1,2-a]pyridin-3-yl)benzonitrile]
